# Test results reported in patent publication US11596692B1 (Incyte Corporation, priority 2018, dated 2023).
# Like-named read-outs stand apart in the source and are kept apart here.
# System: IRF3
# Assay: IRF3 activation assay in THP-1 Dual cells
# Type: cell-based
# Details: Homo sapiens, read-out: THP1 IRF3 EC50
# Procedure: THP-1 Dual Cells (Invivogen) were maintained in RPMI1640 medium with addition of 10% FBS, 100 μg/ml zeocin, 10 μg/ml blasticidin. Cells were added in a 96-well flat bottom assay plate at 100,000 per well in 100 μL complete RPMI medium. Test compounds were prepared by serial dilution in complete RPMI medium and 100 μL test compounds were transferred to each corresponding well. The assay plate was incubated at 37° C., 5% CO2 for 24 hours. After the overnight incubation, 20 μL of the culture supernatants were collected, followed by addition of 180 μL of QUANTI-Blue (Invivogen) to assess IRF3 activity. The amount of IRF3 activation was assessed by reading the absorbance at 620-655 nm with a microplate reader 2 hours later. The culture supernatant from the untreated THP-1 cells was used as the negative control. EC50 determination was performed by fitting the curve of percent control activity versus the log of the compound concentration using the GraphPad Prism 6.0 software.
SMILES,"EC50 (THP-1, Table 4A)","EC50 (THP-1, Table 4B)","EC50 (THP-1, Table 4C)"
"CCn1nc(C)cc1C(=O)Nc1nc2cc(C(N)=O)cc(C)c2n1C/C=C/Cn1c2ccc(C(N)=O)cc2c2cnc(-c3cc(C)nn3CC)nc21 [Example S1, (E)-9-(4-(5-carbamoyl-2-(1-ethyl-3-methyl-1H-pyrazole-5-carboxamido)-7-methyl-1H-benzo[d]imidazol-1-yl)but-2-enyl)-2-(1-ethyl-3-methyl-1H-pyrazol-5-yl)-9H-pyrimido[4,5-b]indole-6-carboxamide]",500 to 1000 nM,< 1000 nM,50 to 200 nM
"CCn1nc(C)cc1C(=O)Nc1nc2cc(C(N)=O)cc(C)c2n1C/C=C/Cn1c2ccccc2c2cnc(-c3cc(C)nn3CC)nc21 [Example S2, (E)-1-(4-(2-(1-ethyl-3-methyl-1H-pyrazol-5-yl)-9H-pyrimido[4,5-b]indol-9-yl)but-2-enyl)-2-(1-ethyl-3-methyl-1H-pyrazole-5-carboxamido)-7-methyl-1H-benzo[d]imidazole-5-carboxamide]",100 to 500 nM,< 1000 nM,200 to 500 nM
"CCn1nc(C)cc1C(=O)Nc1nc2cc(C(N)=O)cc(C)c2n1C/C=C/Cn1c2ccc(C(N)=O)cc2c2cnc(-c3cc(C)nn3C)nc21 [Example S3, (E)-9-(4-(5-carbamoyl-2-(1-ethyl-3-methyl-1H-pyrazole-5-carboxamido)-7-methyl-1H-benzo[d]imidazol-1-yl)but-2-enyl)-2-(1,3-dimethyl-1H-pyrazol-5-yl)-9H-pyrimido[4,5-b]indole-6-carboxamide]",100 to 500 nM,< 1000 nM,
"CCn1nc(C)cc1C(=O)Nc1nc2cc(C(N)=O)cc(OC)c2n1C/C=C/Cn1c2ccc(C(N)=O)cc2c2cnc(-c3cc(C)nn3CC)nc21 [Example S4, (E)-9-(4-(5-carbamoyl-2-(1-ethyl-3-methyl-1H-pyrazole-5-carboxamido)-7-methoxy-1H-benzo[d]imidazol-1-yl)but-2-enyl)-2-(1-ethyl-3-methyl-1H-pyrazol-5-yl)-9H-pyrimido[4,5-d]indole-6-carboxamide]",500 to 1000 nM,< 1000 nM,500 to 1000 nM
"CCn1nc(C)cc1C(=O)Nc1nc2cc(C(N)=O)cc(C)c2n1C/C=C/Cn1c2ccc(C(N)=O)cc2c2ccc(-c3cc(C)nn3CC)nc21 [Example S5, (E)-9-(4-(5-carbamoyl-2-(1-ethyl-3-methyl-1H-pyrazole-5-carboxamido)-7-methyl-1H-benzo[d]imidazol-1-yl)but-2-en-1-yl)-2-(1-ethyl-3-methyl-1H-pyrazol-5-yl)-9H-pyrido[2,3-b]indole-6-carboxamide]",≤ 100 nM,< 1000 nM,50 to 200 nM
"CCCn1nc(C)cc1-c1ncc2c3cc(C(N)=O)ccc3n(C/C=C/Cn3c(NC(=O)c4cc(C)nn4CC)nc4cc(C(N)=O)cc(C)c43)c2n1 [Example S6, (E)-9-(4-(5-carbamoyl-2-(1-ethyl-3-methyl-1H-pyrazole-5-carboxamido)-7-methyl-1H-benzo[d]imidazol-1-yl)but-2-enyl)-2-(3-methyl-1-propyl-1H-pyrazol-5-yl)-9 H-pyrimido[4,5-b]indole-6-carboxamide]",≤ 100 nM,< 200 nM,≤ 50 nM
"CCn1nc(C)cc1C(=O)Nc1nc2cc(C(N)=O)cc(C)c2n1C/C=C/Cn1c2ccc(C(N)=O)cc2c2cnc(-c3ccnn3CC)nc21 [Example S7, (E)-9-(4-(5-carbamoyl-2-(1-ethyl-3-methyl-1H-pyrazole-5-carboxamido)-7-methyl-1H-benzo[d]imidazol-1-yl)but-2-enyl)-2-(1-ethyl-1H-pyrazol-5-yl)-9H-pyrimido[4,5-b]indole-6-carboxamide]",100 to 500 nM,< 1000 nM,200 to 500 nM
"CCc1nn(C)cc1-c1ncc2c3cc(C(N)=O)ccc3n(C/C=C/Cn3c(NC(=O)c4cc(C)nn4CC)nc4cc(C(N)=O)cc(C)c43)c2n1 [Example S8, (E)-9-(4-(5-carbamoyl-2-(1-ethyl-3-methyl-1H-pyrazole-5-carboxamido)-7-methyl-1H-benzo[d]imidazol-1-yl)but-2-enyl)-2-(3-ethyl-1-methyl-1H-pyrazol-4-yl)-9H-pyrimido[4,5-b]indole-6-carboxamide]",500 to 1000 nM,< 1000 nM,500 to 1000 nM
"CCn1nc(C)cc1C(=O)Nc1nc2cc(C(N)=O)cc(C)c2n1C/C=C/Cn1c2ccc(C(N)=O)cc2c2cnc(-c3cc(C(F)(F)F)nn3CC)nc21 [Example S9, (E)-9-(4-(5-carbamoyl-2-(1-ethyl-3-methyl-1H-pyrazole-5-carboxamido)-7-methyl-1H-benzo[d]imidazol-1-yl)but-2-enyl)-2-(1-ethyl-3-(trifluoromethyl)-1H-pyrazol-5-yl)-9H-pyrimido[4,5-b]indole-6-carboxamide]",100 to 500 nM,< 1000 nM,200 to 500 nM
"CCn1nc(C)cc1C(=O)Nc1nc2cc(C(N)=O)cc(C)c2n1C/C=C/Cn1c2nc(-c3cc(C)nn3CC)ncc2c2cc(C(N)=O)cc(OC)c21 [Example S10, (E)-9-(4-(5-carbamoyl-2-(1-ethyl-3-methyl-1H-pyrazole-5-carboxamido)-7-methyl-1H-benzo[d]imidazol-1-yl)but-2-enyl)-2-(1-ethyl-3-methyl-1H-pyrazol-5-yl)-8-methoxy-9H-pyrimido[4,5-b]indole-6-carboxamide]",≤ 100 nM,< 200 nM,≤ 50 nM
"CCn1nc(C)cc1C(=O)Nc1nc2cc(C(N)=O)cc(C)c2n1C/C=C/Cn1c2nc(-c3cc(C)nn3CC)ncc2c2cc(C(N)=O)cc(OCCCN3CCOCC3)c21 [Example S11, (E)-9-(4-(5-carbamoyl-2-(1-ethyl-3-methyl-1H-pyrazole-5-carboxamido)-7-methyl-1H-benzo[d]imidazol-1-yl)but-2-enyl)-2-(1-ethyl-3-methyl-1H-pyrazol-5-yl)-8-(3-morpholinopropoxy)-9H-pyrimido[4,5-b]indole-6-carboxamide]",≤ 100 nM,< 200 nM,≤ 50 nM
"CCn1nc(C)cc1C(=O)Nc1nc2cc(C(N)=O)cc(C)c2n1C/C=C/Cn1c2nc(-c3cc(C)nn3CC)ncc2c2cc(C(N)=O)cc(OCCCOC)c21 [Example S12, (E)-9-(4-(5-carbamoyl-2-(1-ethyl-3-methyl-1H-pyrazole-5-carboxamido)-7-methyl-1H-benzo[d]imidazol-1-yl)but-2-enyl)-2-(1-ethyl-3-methyl-1H-pyrazol-5-yl)-8-(3-methoxypropoxy)-9H-pyrimido[4,5-b]indole-6-carboxamide]",≤ 100 nM,< 200 nM,≤ 50 nM
"CCn1nc(C)cc1C(=O)Nc1nc2cc(C(N)=O)cc(C)c2n1C/C=C/Cn1c2nc(-c3cc(C)nn3CC)ncc2c2cc(C(N)=O)cc(OCCCO)c21 [Example S13, (E)-9-(4-(5-carbamoyl-2-(1-ethyl-3-methyl-1H-pyrazole-5-carboxamido)-7-methyl-1H-benzo[d]imidazol-1-yl)but-2-enyl)-2-(1-ethyl-3-methyl-1H-pyrazol-5-yl)-8-(3-hydroxypropoxy)-9H-pyrimido[4,5-b]indole-6-carboxamide]",≤ 100 nM,< 200 nM,≤ 50 nM
"CCn1nc(C)cc1C(=O)Nc1nc2cc(C(N)=O)cc(C)c2n1C/C=C/Cn1c2nc(-c3cc(C)nn3CC)ccc2c2cc(C(N)=O)cc(OC)c21 [Example S14, (E)-9-(4-(5-carbamoyl-2-(1-ethyl-3-methyl-1H-pyrazole-5-carboxamido)-7-methyl-1H-benzo[d]imidazol-1-yl)but-2-enyl)-2-(1-ethyl-3-methyl-1H-pyrazol-5-yl)-8-methoxy-9H-pyrido[2,3-b]indole-6-carboxamide]",≤ 100 nM,< 200 nM,≤ 50 nM
